Values of other authors as cited in patent publication US20230270707A1, “ORAL LIQUID PHARMACEUTICAL COMPOSITIONS OF ISOTRETINOIN” (IDRS Labs Private Limited, priority 2020, published 2023).
Like-named read-outs stand apart in the source and are kept apart here.

Key:
[1] = target plasma level of isotretinoin ≥2 μM

## CC1=C(/C=C/C(C)=C/C=C/C(C)=C\C(=O)O)C(C)(C)CCC1 [isotretinoin, 13-cis retinoic acid]
other
  solubility in water: practically insoluble in water
[1]; drug extracted from capsules and mixed with food or given via nasogastric tube
  patients who achieved the target Cmax: 55%
[1]; patients able to swallow the capsules
  patients who achieved the target Cmax: 92.5%
